Results: patent US20060252699A1, “Method for lowering serum homocysteine” (priority 2004, published 2006)
“And” between values parts separate entries of the source, which are not always exact repeats. Equal entries are not always repeated.

Experiments:
[1] = test system: methylmalonyl CoA mutase (MCM); settings: brain astrocytes, in vitro; cited from earlier work
serum homocysteine = assay: L-isoleucine therapy for 10 weeks in postmenopausal women: serum homocysteine; assay type: in vivo, human
Description: L-isoleucine therapy (3-5 grams/day divided into two doses per day) was administered to 17 postmenopausal women for 10 weeks. The L-isoleucine therapy was associated with an 11% average reduction in serum homocysteine levels among 14 post menopausal woman experiencing hot flashes.

CC[C@H](C)[C@H](N)C(=O)O [L-isoleucine]
upregulation of the expression of MCM message [1]: 4 fold | average reduction in serum homocysteine levels (serum homocysteine; among 14 post menopausal women experiencing hot flashes, 10 weeks): 11% | reduction in serum homocysteine (serum homocysteine; in 2 participants): > 30% | reduction in serum homocysteine (serum homocysteine; in 5 participants): > 20% | homocysteine (serum homocysteine; individual participants, 10 week values (l), L-isoleucine 3-5 grams/day divided into two doses): 9.8 umol/L and 4.8 umol/L and 7 umol/L (2×) and 7.1 umol/L and 8.7 umol/L and 7.9 umol/L and 6.1 umol/L and 10.8 umol/L and 8.3 umol/L (2×) and 5.1 umol/L and 6.6 umol/L and 6.7 umol/L | % reduction (homocysteine) (serum homocysteine; individual participants, 10 week vs baseline, given as fraction): 0.3043 and 0.2473 and 0.01389 and 0 and 0.1319 and 0.04688 and 0.01408 and 0.009174 and −0.2388 and 0.03488 and 0.1774 and 0.2235 and 0.3021 and 0.2632

CCC(=O)SCCNC(=O)CCNC(=O)[C@H](O)C(C)(C)COP(=O)(O)OP(=O)(O)OC[C@H]1O[C@@H](n2cnc3c(N)ncnc32)[C@H](O)[C@@H]1OP(=O)(O)O [propionyl CoA]
upregulation of the expression of MCM message [1]: 4 fold

CC(C)[C@H](N)C(=O)O [valine]
upregulation of the expression of MCM message [1]: 4 fold
